According to US20130260365A1, “HIGHLY EFFICIENT PROCESS FOR PRODUCING BIOETHANOL” (HONDA MOTOR CO., LTD., priority 2012, published 2013):

Experiments:
[1] = tested on: fermentative microorganism cell (yeast); conditions: for growth inhibition of fermentative microorganism cell: acetic acid 1000 or 500 mg/L, or formic acid 400 mg/L, added to reagent sugar solution, after 24 hours, compared with no organic acid added
[2] = tested on: fermentative microorganism cell (yeast); assay: microbe, parasite or virus in culture; conditions: Saccharomyces cerevisiae, 24 h, read-out: Growth inhibition (%)
Experimental: Sugar solutions to which acetic acid or formic acid was added were prepared for comparison with a reagent sugar solution containing no organic acid, and the fermentative microorganism cell of the same count was added to each sugar solution and cultured. At this time, the pHs of the reagent sugar solutions were adjusted to be the same. The absorbance of the microorganic counts was measured 24 hours later. Using the sugar solution to which acetic acid or formic acid was not added as the criterion, the degrees of growth inhibition are shown below.

[3] = tested on: fermentative microorganism cell; conditions: acetic acid added to give 17.79 mM vs sugar solution without acetic acid
Experimental: A model experiment was subsequently carried out. After 72 hours from feeding a microorganism cell to a rice straw sugar solution at 50° C.

Compound | growth of the fermentative microorganism cell ([1]; 3000 mg/L of acetic acid added to the reagent sugar solution) | growth inhibition of fermentative microorganism cell [1] | inhibition at 5900 µM [2] [%] | inhibition at 11900 µM [2] [%] | inhibition at 17800 µM [2] [%] | microorganic growth (absorbance) [3] | inhibition at 10000 µM [2] [%] | inhibition at 20000 µM [2] [%] | inhibition at 30000 µM [2] [%]
CC(=O)O [Acetic acid, acetic acid] | no growth | growth inhibition of fermentative microorganism cell was observed | 10.4 | 28.8 | 75.3 | evidently poorer | – | – | –
O=CO [Formic acid, formic acid] | – | growth inhibition of fermentative microorganism cell was observed | – | – | – | – | 5.6 | 61.1 | 71.4
